Key:
[1] = target: T1, BRAF^V600E (SK-MEL-28 cells, homozygous) (Homo sapiens, UniProt P15056, V600E); test: BRAF degradation by immunoblot in SK-MEL-28 cells; format: cell-based
T1 construct: endogenous in cells; host or cells: SK-MEL-28
Experimental: (§1) Cells were plated in 6 well dishes (5 × 10^5–8 × 10^5 cells) and allowed to attach overnight. […] The plates were then placed on ice and washed 1x with chilled PBS and lysed in buffer containing 25 mM Tris-HCl [pH 7.4], 0.25% sodium deoxycholate, 150 mM NaCl, 1% Triton X-100, supplemented with protease inhibitors (1x Roche protease inhibitor cocktail) and phosphatase inhibitors (10 mM NaF, 1 mM Na3OV4, and 20 mM β-glycerophosphate). Lysates were then cleared at 21,000 g for 10 min at 4 °C. Protein concentrations of the supernatants were then quantified using a Pierce BCA Protein Assay. 12–40 µg of protein were separated using a gradient (4–20%) Criterion TGX precast gel and transferred unto a nitrocellulose membrane. The membranes were then blocked in 5% non-fat milk in TBST (Tris-buffered Saline with Tween 20) for 1 h before probing with the indicated primary antibody overnight. Membranes were imaged using Bio-Rad Image Lab software using ECL prime detection reagent (GE Healthcare, RPN2232 or ThermoScientific, 34095).
(§2) Western blot data was quantified by using the band feature in Image Lab, and values were averaged and analyzed in GraphPad Prism. DC50 and DMAX values were fitted using a three parameter [inhibitor] versus response and reported directly from the Prism output. Mean ± SD and unpaired t-tests were performed in GraphPad Prism.

[2] = system: MEK and ERK phosphorylation (SK-MEL-28 cells); test: MEK and ERK phosphorylation by immunoblot in SK-MEL-28 cells; format: cell-based
Experimental: as §1, §2

[3] = system: SK-MEL-28 cells (Class 1, BRAF^V600E); test: Cell proliferation (MTS) assay; format: cell-based; conditions: Homo sapiens, 72 h, 3 days, read-out: EC50, cell growth
[4] = system: SK-MEL-239 C4 cells (BRAF^WT/BRAF-p61^V600E); test: Cell proliferation (MTS) assay; format: cell-based; conditions: 5 days
[5] = system: SK-MEL-246 cells (Class 2, BRAF^G469A); test: Cell proliferation (MTS) assay; format: cell-based
[6] = system: CAL-12-T cells (Class 3, BRAF^G466V); test: Cell proliferation (MTS) assay; format: cell-based; conditions: 5 days
Experimental: […] 2 mg/ml MTS (Promega Corp., Madison, WI: G5421) and 25 μM phenazine methosulfate (Sigma, St. Louis, MO) were combined 19:1 and then added to cells (1 volume combined reagent: 5 volumes medium) and incubated for 1–3 h. Mitochondrial reduction of MTS to the formazan derivative was monitored by measuring the medium’s absorbance at 480 nm using a Perkin Elmer Envision Plate reader.

BRAF V600E = BRAF V600E (Homo sapiens, UniProt P15056, V600E); test: Elisa kinase inhibition assay (Carna Biosciences); format: biochemical; parameters: purchased Carna Biosciences; conditions: Km ATP, duplicate
Sequence of BRAF V600E (P15056 whole entry V600E): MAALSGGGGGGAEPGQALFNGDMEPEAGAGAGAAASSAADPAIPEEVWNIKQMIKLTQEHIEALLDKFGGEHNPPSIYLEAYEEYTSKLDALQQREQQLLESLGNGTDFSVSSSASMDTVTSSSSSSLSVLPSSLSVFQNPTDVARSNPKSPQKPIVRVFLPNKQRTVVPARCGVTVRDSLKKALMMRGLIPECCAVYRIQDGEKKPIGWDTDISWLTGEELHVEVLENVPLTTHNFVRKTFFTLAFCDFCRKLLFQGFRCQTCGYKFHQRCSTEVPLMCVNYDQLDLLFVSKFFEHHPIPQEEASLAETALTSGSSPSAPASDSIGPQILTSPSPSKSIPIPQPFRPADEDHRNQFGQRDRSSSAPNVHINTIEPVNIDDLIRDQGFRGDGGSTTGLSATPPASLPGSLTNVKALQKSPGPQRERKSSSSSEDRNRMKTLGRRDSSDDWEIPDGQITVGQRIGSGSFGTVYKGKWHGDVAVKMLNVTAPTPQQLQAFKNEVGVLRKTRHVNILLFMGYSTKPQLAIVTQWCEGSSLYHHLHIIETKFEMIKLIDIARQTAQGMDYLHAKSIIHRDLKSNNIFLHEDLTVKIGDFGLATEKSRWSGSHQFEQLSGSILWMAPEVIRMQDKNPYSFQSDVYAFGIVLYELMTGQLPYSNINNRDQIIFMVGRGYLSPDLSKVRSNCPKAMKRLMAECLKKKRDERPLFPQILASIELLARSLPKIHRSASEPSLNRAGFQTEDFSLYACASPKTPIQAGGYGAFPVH
Experimental: Kinase assays were performed by Carna Biosciences by their protocol in duplicate using Km amounts of ATP calculated for each kinase.

[7] = system: H1666 cells (Class 3, BRAF^G466V); test: Cell proliferation (MTS) assay; format: cell-based; conditions: 5 days

T1 sequence (P15056 whole entry V600E): as above

Row | Structure (SMILES) | effect on BRAF protein levels [1] | concentration giving maximal inhibition of MEK and ERK phosphorylation / maximal suppression of p-ERK [2] | EC50 [3] | effect on cell growth [4] | EC50 ([5]; 120 h, 5-day treatment, read-out: EC50, cell growth) | inhibition of cell growth / effect on cell viability [6] | IC50 (BRAF V600E) | inhibition of cellular growth ([5]; 5 days, at concentrations above 1 μM, not sustained at 10 μM) | cell growth inhibition [7]
1 | CCCS(=O)(=O)Nc1ccc(F)c(C(=O)c2c[nH]c3ncc(-c4ccc(N5CCN(CC(=O)N[C@H](C(=O)N6C[C@@H](O)C[C@H]6C(=O)NCc6ccc(-c7scnc7C)cc6)C(C)(C)C)CC5)cc4)cc23)c1F [SJF-0661] | did not decrease BRAF protein levels | 100 nM | 243 ± 1.09 nM | minimal effect | 278 ± 1.07 nM | minimal effect on cell viability | 30 nM | – | –
2 | CCCS(=O)(=O)Nc1ccc(F)c(C(=O)c2c[nH]c3ncc(-c4ccc(Cl)cc4)cc23)c1F [vemurafenib, reference compound] | – | – | 215 ± 1.09 nM | minimal effect | – | minimal effect on cell viability | – | some inhibition | less than 50%
